Drawing on PubChem BioAssay (NCI), this text covers GI50 and TGI for 12 molecules.

“And” between values parts separate entries of the source, which are not always exact repeats. Identical values can stand only once.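 Following 48 hours of exposure in 96-well plates, responses at five concentrations were used to interpolate endpoints linearly. Abbreviation: GI50, concentration required for 50% inhibition of growth. TGI: concentration producing complete growth inhibition.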

Test in all cases: NCI-60 cell line screen, 48 h
Assay [1] concerns 786-0 renal.
Assay [2] concerns A498 renal.
For assay [3], the system named is CCRF-CEM leukemia.
Assay [4] deals with KM12 colon.
Assay [5] relates to LOX IMVI melanoma.
Assay [6] concerns MALME-3M melanoma.
The subject of assay [7] is RXF 393 renal.
For assay [8], the system named is SF-295 CNS.
In assay [9] the test system is SK-OV-3 ovarian.
Assay [10] deals with OVCAR-3 ovarian.

As for `CCCCn1c(-c2ccc(C(=O)O/N=C(\N)c3ccc4c(c3)OCO4)cc2)nc(-c2ccccc2)c1-c1ccccc1`, the GI50 was 2.5 µM in [1]; 0.306 µM in assay [2]; 1.05 µM in assay [3]; 4.72 µM in assay [4]; 0.185 µM in [5]; 1.78 µM in assay [6]. For the same molecule, the figures for the GI50 in [7], in [8] and in [9] were 1.85 µM, 2.03 µM and 7.13 µM, respectively. Moreover, the TGI was 6.15 µM in [1]; 2.82 µM in [2]; 3.4 µM in [3]; greater than 100 µM in assay [4]; 0.379 µM in [5]; 4.3 µM in assay [6]. Also, the TGI in assay [7] was 4.93 µM; in assay [8] it was 4.38 µM; in assay [9] it was greater than 100 µM.
As for `C[C@H]1CCCC(O)C(O)[C@@H]2C[C@H](O[Si](C)(C)C(C)(C)C)C[C@H]2[C@H](O[Si](C)(C)C(C)(C)C)C(O)C(O)C(=O)O1` (stereo partly specified), the GI50 in [1] was 10.6 µM; in assay [2], 40.4 µM; in assay [3], 28 µM; in [4], 37.5 µM; in assay [6], 11.7 µM; in assay [10] it was 25 µM. For the same molecule, the GI50 in assay [7] was 31.8 µM; in [8], 32 µM; in assay [9], 54.6 µM. The TGI was 22.3 µM in assay [1]; greater than 100 µM in [2]; greater than 100 µM in assay [3]; greater than 100 µM in [4]; 35.2 µM in assay [6]; 79.7 µM in assay [10]. In addition, the TGI in assay [7], in assay [8] and in [9] was greater than 100 µM each time.
Consider `CCC(=O)Nc1nc2c(ncn2C2OC(COC(=O)CC)C(OC(=O)CC)C2OC(=O)CC)c(=O)[nH]1` (stereo unspecified), for which the TGI in [1], in assay [2], in [4], in [5], in assay [6] and in assay [10] was greater than 100 µM each time. Also, the TGI in assay [7], in [8] and in assay [9] was greater than 100 µM each time.
Take `CSc1nnc(COc2ccc(Cl)cc2)o1`: the TGI in assay [1], in assay [2], in [4], in assay [5], in assay [6] and in assay [10] was greater than 100 µM each time. The TGI in [7], in assay [8] and in assay [9] was greater than 100 µM throughout.
In the case of `O=C(N/N=C/c1cccc(F)c1)c1ccncc1`, the TGI in [1], in [2], in assay [3], in assay [4], in assay [5] and in assay [6] was greater than 100 µM throughout. The TGI in [7], in assay [8] and in assay [9] was greater than 100 µM throughout.
Take `CC(C)(C)c1cc(C=C(C#N)C#N)cc(C(C)(C)C)c1O`: the GI50 in assay [1] was 0.393 µM; in assay [2], 0.158 µM; in assay [3], 0.609 µM; in [5], 0.375 µM; in assay [6], 0.507 µM; in [10], 0.456 µM. For the same molecule, the GI50 was 0.482 µM in [7]; 0.284 µM in assay [8]; 0.229 µM and 0.302 µM in assay [9]. The TGI in assay [1] is 10.9 µM and 16.4 µM; in assay [2], 3.83 µM and 1.76 µM; in [5], 3.92 µM and 10.8 µM; in assay [6], 15.4 µM and 8.08 µM; in assay [10] it was 29.2 µM and 3.85 µM; in assay [7] it was 14.3 µM and 10.5 µM. Besides, in [8], the TGI was 1.23 µM and 3.4 µM.
Take `COc1ccc(C(=O)NCCN(C)C)c2nc3ccccc3nc12`: the TGI was greater than 59.9 µM in assay [1]; 16.3 µM in assay [2]; 32.4 µM in assay [4]; 6.48 µM in [5]; 6.8 µM in [6]; greater than 29.3 µM in [10]. Further, the TGI in [7] is 25.4 µM; in assay [8], greater than 36.1 µM; in assay [9], greater than 63.2 µM.
Regarding `CC(C)(C)C(=O)[CH-]C(=O)C(C)(C)C.CC(C)(C)C(=O)[CH-]C(=O)C(C)(C)C.CN(C)c1ccc([O-])cc1.CN(C)c1ccc([O-])cc1.[Ti+4]`, the GI50 in assay [1] was 68.2 µM; in [3] it was greater than 100 µM; in [4], 64.8 µM; in assay [5] it was greater than 100 µM; in [6], greater than 100 µM; in [10], 96.2 µM. For the same molecule, the figures for the GI50 in [7], in assay [8] and in [9] were 14.4 µM, greater than 100 µM and greater than 100 µM, respectively. Also, the TGI in [1], in [3], in assay [4], in [5], in [6] and in [10] was greater than 100 µM each time. Besides, the TGI in [7], in [8] and in assay [9] was greater than 100 µM throughout.
As for `CCOC(=O)C1SC(=Nc2ccc(Cl)cc2)N=C1C` (stereo unspecified), the TGI turned out to be 30.7 µM in assay [1]; 41.3 µM in assay [2]; 36.1 µM in assay [4]; 32.5 µM in [5]; 35.9 µM in [6]; 47.8 µM in assay [10]. Moreover, the values for the TGI in assay [7] and in [8] were 36.3 µM and 34.9 µM, respectively.
Regarding `CSC1=Nc2ccccc2N=C(c2ccc(Cl)cc2)C1`, the TGI is greater than 100 µM in [1]; greater than 100 µM in [3]; greater than 100 µM in assay [4]; 72.1 µM in [5]; 92.6 µM in assay [6]; greater than 100 µM in [10]. The TGI is 79.2 µM in assay [7], greater than 100 µM in assay [8] and greater than 100 µM in assay [9].
For `COc1cc2c(cc1OC)C(C(=O)c1cccc(OC)c1OC)C(=O)N(C)CC2` (stereo unspecified), the TGI in assay [1], in [2], in assay [3], in [4], in assay [5] and in assay [6] was greater than 100 µM throughout. The TGI in assay [10], in assay [7] and in assay [9] was greater than 100 µM throughout.
`O=C(O)[C@H](c1ccccc1)[C@@H](C(=O)O)c1ccccc1`: the TGI in assay [1], in assay [2], in [4], in assay [5], in assay [6] and in assay [10] was greater than 100 µM throughout. Also, the TGI in assay [7], in assay [8] and in assay [9] was greater than 100 µM in each case.
